Source: patent US11141496B2, “Use of berberine or derivative thereof in preparing myocardial perfusion imaging agent” (WEST CHINA HOSPITAL, SICHUAN UNIVERSITY, priority 2017, dated 2021)

Assays:
[1] = tested on: mitochondria of SD neonatal rat primary cardiomyocytes; assay: [^19F]HX-01 localization with red mitochondrial probe M7513 in primary cardiomyocytes; type: cell-based; settings: 4 μM, 10 min, cardiomyocytes and surrounding mixed cells
Procedure: The suspension of primary myocardial cells of SD suckling mice was adjusted to the concentration of 20×10^4/ml, inoculated in a six-well plate, with 2 ml for each well, and then incubated at 37° C. in 5% CO2 under saturated humidity for 24 h. After adherence, the DMEM high glucose medium in each well was aspirated and discarded, and DMEM high glucose medium containing different concentrations of [^19F]HX-01 (6.25, 12.5, 25, 50, 100, 150, and 200 μM) was firstly added, with 2 ml for each well, and each concentration has three replicate wells. After incubation at 37° C. in 5% CO2 under saturated humidity for 1 h, the liquid in each well was aspirated and removed. […] After the wells were washed three times with PBS, the cells were finally observed under a confocal fluorescence microscope with an excitation wavelength of 488 nm.
In order to further clarify the localization characteristics of [^19F]HX-01 in the subcellular organelles of SD rat primary cardiomyocytes, after addition of above different concentrations of [^19F]HX-01 and incubation for 1 h, the medium was discarded, and each well was rinsed with PBS three times. Each well was added the medium containing mitochondrial specific probe with red fluorescence (Mito Tracker Red (M7513), Thermo fisher) and incubated for another 10 min, the medium was removed, and each well was rinsed with PBS three times. […]

[2] = rabbit, in vivo
[3] = tested on: rat cardiomyocytes H9C2; assay: [^18F]HX-01 uptake in H9C2 cells, with and without CCCP (γ counter); type: cell-based
Procedure: As described in method 1.4.4, the suspension of rat cardiomyocytes H9C2, NIH3T3 cells and SD neonatal rat primary cardiomyocytes was adjusted to the concentration of 20×10^4/ml, inoculated in a six-well plate, with 2 ml for each well (containing 4×10^5 cells), and the experimental group and CCCP inhibition group were included, The plate was cultured at 37° C. in 5% CO2 under saturated humidity for 24 h. After the cells adhered, 30 minutes before addition of [^18F]HX-01, the DMEM high-glucose medium in the Petri dish was aspirated and discarded. DMEM high-glucose medium containing CCCP (0.5 μM) was firstly added at 2 ml/well to the cell culture dish in CCCP inhibition group, while an equal volume of DMEM high-glucose medium without CCCP was added to the cell culture dish in the experimental groups, and the dish was incubated at 37° C. in 5% CO2 under saturated humidity for 30 min. Then, 100 μl solution of [^18F]HX-01 dissolved in saline was added to each well at a dose of 2.5 μCi. The plate was incubated at 37° C. in 5% CO2 under saturation humidity. […] After digestion with 0.25% trypsin, all cells were collected in the radioimmunotubes, and the radioactivity counts of the liquid and cells in the wells were measured with a γ counter, and the data were recorded. […]

[4] = Competitive inhibition test of [^18F]HX-01 and non-radioactive standard [^19F]HX-01 (PET); type: in vivo, New Zealand white rabbit; settings: [^19F]HX-01 1 nmol/kg i.v. 30 min before tracer
Procedure: After anesthesia and fixation, the male New Zealand white rabbits were set as their own control (n=3). On the first day, 2 ml saline was injected into the ear marginal vein of the rabbits. Then, the tracer [^18F]HX-01 was injected, and the dosage was 0.5 mci/kg, and PET scanning was performed immediately as described in 1.4.2. On the second day, non-radioactive standard [^19F]HX-01 was injected through ear edge vein, and the dose of standard substance was 1 nmol/kg, that was dissolved in 2 ml normal saline. 30 min After injection of non-radioactive standard [^19F]HX-01, the tracer [^18F]HX-01 was injected, and the injection doe was 0.5 mCi/kg. After the injection, PET dynamic scanning was performed as described in 1.4.2. […] Using Compassview 5.0 to analyze and process the data, the brain, heart, liver, lung, kidney, bone and muscle of the region of interest (ROI) were drawn on the horizontal axis, and SUVmax was recorded.

[5] = tested on: SD neonatal rat primary cardiomyocytes; assay: [^18F]HX-01 uptake in SD neonatal rat primary cardiomyocytes, with and without CCCP (γ counter); type: cell-based
Procedure: (§1) As described in method 1.4.4, the suspension of rat cardiomyocytes H9C2, NIH3T3 cells and SD neonatal rat primary cardiomyocytes was adjusted to the concentration of 20×10^4/ml, inoculated in a six-well plate, with 2 ml for each well (containing 4×10^5 cells), and the experimental group and CCCP inhibition group were included, The plate was cultured at 37° C. in 5% CO2 under saturated humidity for 24 h. After the cells adhered, 30 minutes before addition of [^18F]HX-01, the DMEM high-glucose medium in the Petri dish was aspirated and discarded. DMEM high-glucose medium containing CCCP (0.5 μM) was firstly added at 2 ml/well to the cell culture dish in CCCP inhibition group, while an equal volume of DMEM high-glucose medium without CCCP was added to the cell culture dish in the experimental groups, and the dish was incubated at 37° C. in 5% CO2 under saturated humidity for 30 min. Then, 100 μl solution of [^18F]HX-01 dissolved in saline was added to each well at a dose of 2.5 μCi. The plate was incubated at 37° C. in 5% CO2 under saturation humidity. After incubation for 5 min, 10 min, 30 min, 60 min and 120 min, the liquid in the well was collected, and rinsed 3 times with PBS, and all the rinse liquid was collected in the radioimmunotubes. After digestion with 0.25% trypsin, all cells were collected in the radioimmunotubes, and the radioactivity counts of the liquid and cells in the wells were measured with a γ counter, and the data were recorded. Three replicate holes were set for each time point.

[6] = SD rat myocardial infarction model, 350 μCi/rat, up to 120 min
[7] = tested on: mouse fibroblasts NIH3T3; assay: [^18F]HX-01 uptake in NIH3T3 cells, with and without CCCP (γ counter); type: cell-based
Procedure: as §1

Row | SMILES | distribution of red fluorescence of the probe [1] | SUVmax ratio of heart/lung [2] | SUVmax ratio of heart/muscle [2] | uptake in other tissues such as brain, lung, muscle and bone [2] | uptake percentage (peak value) ([3]; 120 min, 2.5 μCi per well) | uptake percentage, control group vs CCCP inhibition group ([3]; CCCP 0.5 μM 30 min before tracer) | kidney uptake (SUVmax), inhibition group vs control group [4] | liver uptake (SUVmax), inhibition group vs control group [4] | myocardial uptake (SUVmax), inhibition group vs control group ([4]; P<0.001) | lung, bone, muscle and brain uptake (SUVmax), inhibition group vs control group ([4]; P>0.05) | uptake percentage ([5]; 30 min) | uptake percentage (peak value) ([5]; 120 min) | intake percentage, normal group vs CCCP inhibition group ([5]; CCCP 0.5 μM, p>0.05) | Micro PET image of anterior wall of left ventricle near apical area (infarction) [6] | uptake percentage ([7]; 5 min) | uptake percentage ([7]; 120 min) | uptake, normal group vs CCCP inhibition group ([7]; CCCP 0.5 μM, p>0.05)
1 | ClCc1ccc(C2=c3cc4c5c(c3Oc3c2cc2c6c3CCCN6CCC2)CCC[N+]=5CCC4)cc1.[Cl-] [M7513] | appeared in the mitochondria of all cells in a granular distribution | – | – | – | – | – | – | – | – | – | – | – | – | – | – | – | –
2 | COc1c(OCCC[18F])ccc2cc3[n+](cc12)CCc1cc2c(cc1-3)OCO2.[Cl-] [[^18F]HX-01] | – | greater than 10 | greater than 10 | extremely low | 2.89%±0.11% | didn't show significant difference in the uptake percentage | no statistical significance between the two groups | no statistical significance between the inhibition group and the control group | SUVmax value was obviously reduced | not statistically significant | 2.08%±0.13% | 2.41%±0.03% | no significant difference in the intake percentage | showed a fixed radioactive defect | 0.78±0.06 | 0.91±0.01 | did not show a significant difference
